The values that follow come from US20150065440A1 (Progen Pharmaceuticals Limited, priority 2007, published 2015).

One series relates to HEp-2 cells. The series can be described thus: Cytotoxicity assay, HEp-2. The settings on record: cell viability reduced by 50%. It is filed as cell-based, Human.
The next series relates to RSV. The series can be described thus: Anti-RSV screening assay (viral plaques). It is filed as cell-based. The conditions noted are these: 100 μg/mL, viral plaques relative to mock treated controls. Here is the method:
(§1) African green monkey kidney (GMK AH1) cells^46 were cultured in Eagle's minimum essential medium (EMEM) supplemented with 2% calf serum, 0.05% Primaton RL substance (Kraft Inc., Norwich, USA) and antibiotics. Human epidermoid carcinoma (HEp-2) cells were cultured in Dulbecco's modified EMEM (DMEM) supplemented with 10% fetal calf serum and antibiotics. […] The RSV strain A-2^50 was used. The RSV stock was prepared as described by Hallak et al.^51 and stored at −70° C. in the presence of 40% sucrose^52.
(§2) The viral infectivity (the plaque number-reduction) assay and the plaque size-reduction assay were carried out as described previously^17. […] Subsequently, the cells were washed with 2 mL of EMEM and overlaid with 1% methylcellulose solution in EMEM. The plaques were visualized by staining with crystal violet solution after 2 (HSV-2) or 3 (HSV-1) days of incubation at 37° C. […] When the compounds were screened for anti-HSV or anti-RSV activity, mixtures of 200 PFU of the virus and the test compound (100 μg/mL) in serum-free EMEM were incubated for 10 min at room temperature before addition to cells and during the entire period of viral infection of cells and the development of viral plaques. In the plaque size-reduction assay, the compounds were added to cells (in methylcellulose overlay medium) after 2 h period of virus infection of cells in the absence of the inhibitor. After 2-3 days of incubation at 37° C., the viral plaques were visualized by staining the cells with 1% solution of crystal violet. For each compound tested, the images of twenty neighboring plaques were captured using a Leica DC300 digital camera attached to a Leitz-Wetzlar Diavert microscope. The area of each plaque was determined using IM500 image software (Leica). Similar protocols were used for RSV, except that the assays were performed in HEp-2 cells and DMEM supplemented with 2% heat-inactivated fetal calf serum was used instead of EMEM.

A further series relates to GMK AH1 cells. The series can be described thus: Cytotoxicity assay, GMK AH1. The class given is cell-based, African green monkey. The settings on record: cell viability reduced by 50%. How it is done:
The assay was performed in GMK AH1 cells that had been seeded in 96 well cluster plates and reached approximately 80-90% confluence at day 2 of culture. The cells were washed with EMEM and incubated for 24 h at 37° C. with 100 μL of serial two-fold dilutions of the test compound in serum-free EMEM. The effect of the test compound on cell viability was measured by using the tetrazolium-based CellTiter96 assay according to the manufacturer's protocol (Promega, Madison, Wis., USA).

A further series concerns HSV-1. As to the kind of experiment: Viral plaque number-reduction assay, HSV-1. The conditions noted are these: GMK AH1 cells. Here is the method: as §1, §2

Molecules are shown by their SMILES.

Consider `CCCCCCCCCCCCOC1OC(COS(=O)(=O)O)C(OS(=O)(=O)O)C(OS(=O)(=O)O)C1OC1OC(COS(=O)(=O)O)C(OS(=O)(=O)O)C(OC2OC(COS(=O)(=O)O)C(OS(=O)(=O)O)C(OC3OC(COS(=O)(=O)O)C(OS(=O)(=O)O)C(OC4OC(COS(=O)(=O)O)C(OS(=O)(=O)O)C(OS(=O)(=O)O)C4OS(=O)(=O)O)C3OS(=O)(=O)O)C2OS(=O)(=O)O)C1OS(=O)(=O)O` [Compound 4, Dodecyl 2,3,4,6-tetra-O-sodium sulfonato-α-D-mannopyranosyl-(1→3)-2,4,6-tri-O-sodium sulfonato-α-D-mannopyranosyl-(1→3)-2,4,6-tri-O-sodium sulfonato-α-D-mannopyranosyl-(1→3)-2,4,6-tri-O-sodium sulfonato-α-D-mannopyranosyl-(1→2)-3,4,6-tri-O-sodium sulfonato-α-D-mannopyranoside], for which, in the series with HEp-2 cells, the “Cytotoxicity CC50 HEp-2” value is more than 400 µg/mL. In addition, the “Residual infectivity (%) RSV” value in the series with RSV is on record as 0%. Moreover, the “Cytotoxicity CC50 GMK AH1” value in the series with GMK AH1 cells is more than 400 µg/mL. The “Selective index CC50/IC50 HSV-1” value in the series with HSV-1 is reported as more than 190.

Take `CC(C)CCCC(C)C1CCC2C3CCC4CC(OC5OC(COS(=O)(=O)O)C(OS(=O)(=O)O)C(OS(=O)(=O)O)C5OC5OC(COS(=O)(=O)O)C(OS(=O)(=O)O)C(OC6OC(COS(=O)(=O)O)C(OS(=O)(=O)O)C(OC7OC(COS(=O)(=O)O)C(OS(=O)(=O)O)C(OS(=O)(=O)O)C7OS(=O)(=O)O)C6OS(=O)(=O)O)C5OS(=O)(=O)O)CCC4(C)C3CCC12C` [Compound 20, 3β-Cholestanyl 2,3,4,6-tetra-O-sodium sulfonato-α-D-mannopyranosyl-(1→3)-2,4,6-tri-O-sodium sulfonato-α-D-mannopyranosyl-(1→3)-2,4,6-tri-O-sodium sulfonato-α-D-mannopyranosyl-(1→2)-3,4,6-tri-O-sodium sulfonato-α-D-mannopyranoside]: in the series on HEp-2 cells, the “Cytotoxicity CC50 HEp-2” value was determined as 113 µg/mL. The “Residual infectivity (%) RSV” value with RSV turned out to be 0%. In the series with GMK AH1 cells, the “Cytotoxicity CC50 GMK AH1” value stood at 110 µg/mL. Further, the “Selective index CC50/IC50 HSV-1” value in the series on HSV-1 turned out to be 52.
